Source: patent US4740233A, “Substituted 1,2,4-triazolo[1,5-a]-pyrimidine-2-sulfonamides and compositions and methods of controlling undesired vegetation and suppressing the nitrification of ammonium nitrogen in soil” (The Dow Chemical Company, priority 1986, dated 1988)

Tests used:
Test in all cases: Preemergent control of plant species
[1] = tested on: barnyardgrass; type: in vivo, Echinochloa crusgalli; details: Echinochloa crus-galli, pre-emergence, 336 h; 0.25 lb/acre; read-out: percent preemergent control
Description: (§1) The seeds of various species of plants were planted in beds of good agricultural soil in a greenhouse. A number of compositions of the present invention, generally in the nature of an aqueous emulsion, were applied at rates listed in the table so as to deposit a predetermined amount of active ingredients uniformly throughout the surface of the bed. Another seed bed was treated only with water to serve as a control. After treatment the seed beds were maintained for two weeks under greenhouse conditions conducive for good plant growth and watered as necessary. Control refers to the reduction in growth compared to the observed results of the same untreated species.

[2] = tested on: rice; type: in vivo, Oryza sativa; details: Oryza sativa, pre-emergence, 336 h; 0.25 lb/acre; read-out: percent preemergent control
Description: as §1

[3] = tested on: corn; type: in vivo, Zea mays; details: Zea mays, pre-emergence, 336 h; 0.25 lb/acre; read-out: percent preemergent control
Description: as §1

[4] = tested on: wheat; type: in vivo, Triticum aestivum; details: Triticum aestivum, pre-emergence, 336 h; 0.25 lb/acre; read-out: percent preemergent control
Description: as §1

[5] = tested on: yellow nutsedge; type: in vivo, Cyperus esculentus; details: Cyperus, pre-emergence, 336 h; 0.25 lb/acre; read-out: percent preemergent control
Description: as §1

[6] = tested on: jimsonweed; type: in vivo, Datura stramonium; details: Datura stramonium, pre-emergence, 336 h; 0.25 lb/acre; read-out: percent preemergent control
Description: as §1

[7] = tested on: yellow foxtail; type: in vivo, Setaria lutescens; details: Setaria, pre-emergence, 336 h; 0.25 lb/acre; read-out: percent preemergent control
Description: as §1

[8] = tested on: annual morning glory; type: in vivo, Ipomoea spp.; details: Ipomoea, pre-emergence, 336 h; 0.25 lb/acre; read-out: percent preemergent control
Description: as §1

[9] = tested on: rape; type: in vivo, Brassica napus; details: Brassica napus, pre-emergence, 336 h; 0.25 lb/acre; read-out: percent preemergent control
Description: as §1

[10] = tested on: soybean; type: in vivo, Glycine max.; details: Glycine max, pre-emergence, 336 h; 0.25 lb/acre; read-out: percent preemergent control
Description: as §1

[11] = tested on: johnson grass; type: in vivo, Sorghum halepense; details: Sorghum halepense, pre-emergence, 336 h; 0.25 lb/acre; read-out: percent preemergent control
Description: as §1

[12] = tested on: velvetleaf; type: in vivo, Abutilon theophrasti; details: Abutilon theophrasti, pre-emergence, 336 h; 0.25 lb/acre; read-out: percent preemergent control
Description: as §1

[13] = tested on: sugar beet; type: in vivo, Beta saccharifera; details: Beta vulgaris, pre-emergence, 336 h; 0.25 lb/acre; read-out: percent preemergent control
Description: as §1

[14] = tested on: sorghum; type: in vivo, Sorghum vulgare; details: Sorghum, pre-emergence, 336 h; 0.25 lb/acre; read-out: percent preemergent control
Description: as §1

[15] = tested on: cotton; type: in vivo, Gossypium spp.; details: Gossypium hirsutum, pre-emergence, 336 h; 0.25 lb/acre; read-out: percent preemergent control
Description: as §1

SMILES	pest or weed control at 280.212 g/ha [1] [%]	plant injury at 280.212 g/ha [2] [%]	plant injury at 280.212 g/ha [3] [%]	plant injury at 280.212 g/ha [4] [%]	pest or weed control at 280.212 g/ha [5] [%]	pest or weed control at 280.212 g/ha [6] [%]	pest or weed control at 280.212 g/ha [7] [%]	pest or weed control at 280.212 g/ha [8] [%]	plant injury at 280.212 g/ha [9] [%]	plant injury at 280.212 g/ha [10] [%]	pest or weed control at 280.212 g/ha [11] [%]	pest or weed control at 280.212 g/ha [12] [%]	plant injury at 280.212 g/ha [13] [%]	plant injury at 280.212 g/ha [14] [%]	plant injury at 280.212 g/ha [15] [%]
CCCCCCCCCC(=O)N(c1c(F)cccc1F)S(=O)(=O)c1nc2nc(C)ccn2n1 [Compound 287]	100	100	60	70	100	100	100	100	100	30	100	100	100	100	100
COc1nc2nc(S(=O)(=O)Nc3c(C)cccc3[N+](=O)[O-])nn2cc1C [Compound 221]	100	100	90	90	100	100	100	100	100	100	70	100	100	100	100
COc1nc2nc(S(=O)(=O)Nc3c(Cl)ccc(C)c3Cl)nn2cc1C [Compound 218]	0	0	0	0	50	100	50	100	100	100	50	100	100	95	100
COC(=O)c1cccc(C)c1NS(=O)(=O)c1nc2nccc(C)n2n1 [Compound 189]	80	90	80	80	100	80	80	50	100	80	70	100	100	100	100
Cc1cc(C(F)(F)F)n2nc(S(=O)(=O)Nc3c(F)ccc(C)c3F)nc2n1 [Compound 230]	100	50	90	30	100	100	80	90	90	20	90	90	100	100	100
Cc1ccc(Cl)c(NS(=O)(=O)c2nc3ncccn3n2)c1Cl [Compound 139]	80	90	70	80	100	100	100	90	100	50	100	100	100	100	100
Cc1ccn2nc(S(=O)(=O)N(C(=O)CC(C)(C)C)c3c(F)cccc3F)nc2n1 [Compound 278]	100	90	60	70	100	100	100	100	100	70	90	100	100	100	100
Cc1ccn2nc(S(=O)(=O)N(C(=O)C(C)(C)C)c3c(F)cccc3F)nc2n1 [Compound 280]	100	50	50	60	100	100	100	90	100	10	90	100	100	100	80
COc1cccc(C(F)(F)F)c1NS(=O)(=O)c1nc2ncccn2n1 [Compound 141]	95	100	100	95	75	100	100	100	100	100	100	100	100	100	100
CCCC(=O)N(c1c(F)cccc1F)S(=O)(=O)c1nc2nc(C)ccn2n1 [Compound 283]	100	100	40	100	100	95	100	80	100	20	100	100	100	100	100
COc1cccc(F)c1NS(=O)(=O)c1nc2nc(C)ccn2n1 [Compound 171]	100	90	40	50	80	20	100	50	100	20	100	90	100	100	70
CCC(=O)N(c1c(F)cccc1F)S(=O)(=O)c1nc2nc(C)ccn2n1 [Compound 276]	100	90	60	80	100	100	100	90	100	10	90	100	100	100	80
